Data as given in PubChem BioAssay (NCI).
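Briefly, cells in 96-well plates were exposed to five compound concentrations for 48 h, and endpoints were estimated by linear interpolation. TGI denotes the concentration required for complete inhibition of growth.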

How the values were obtained:
Assay in all cases: NCI anticancer screen, dose series, 48 h
[1] = test system: A498 renal
[2] = test system: ACHN renal
[3] = test system: CCRF-CEM leukemia
[4] = test system: DMS 114 small cell lung
[5] = test system: EKVX NSCLC
[6] = test system: HCC-2998 colon
[7] = test system: HCT-116 colon
[8] = test system: HCT-15 colon
[9] = test system: HL-60(TB) leukemia
[10] = test system: HOP-62 NSCLC
[11] = test system: HT29 colon
[12] = test system: K-562 leukemia
[13] = test system: KM12 colon
[14] = test system: LOX IMVI melanoma
[15] = test system: LXFL 529 NSCLC
[16] = test system: M14 melanoma
[17] = test system: M19-MEL melanoma
[18] = test system: MALME-3M melanoma
[19] = test system: MOLT-4 leukemia
[20] = test system: NCI-H23 lung
[21] = test system: NCI-H460 lung
[22] = test system: NCI-H522 lung
[23] = test system: OVCAR-3 ovarian
[24] = test system: OVCAR-4 ovarian
[25] = test system: OVCAR-5 ovarian
[26] = test system: RPMI-8226 leukemia
[27] = test system: RXF 393 renal
[28] = test system: SF-268 CNS
[29] = test system: SF-539 CNS
[30] = test system: SK-MEL-2 melanoma
[31] = test system: SK-MEL-28 melanoma
[32] = test system: SK-OV-3 ovarian
[33] = test system: SN12C renal
[34] = test system: SNB-19 CNS
[35] = test system: SNB-75 CNS
[36] = test system: SNB-78 CNS
[37] = test system: SR leukemia
[38] = test system: TK-10 renal
[39] = test system: U251 CNS
[40] = test system: UACC-257 melanoma
[41] = test system: UACC-62 melanoma
[42] = test system: UO-31 renal
[43] = test system: XF 498 CNS
[44] = test system: 786-0 renal
[45] = test system: A549 NSCLC
[46] = test system: BT-549 breast
[47] = test system: CAKI-1 renal
[48] = test system: COLO 205 colon
[49] = test system: DLD-1 colon
[50] = test system: DMS 273 small cell lung
[51] = test system: DU-145 prostate
[52] = test system: HOP-18 NSCLC
[53] = test system: HOP-92 NSCLC
[54] = test system: HS 578T breast
[55] = test system: IGROV1 ovarian
[56] = test system: KM20L2 colon
[57] = test system: MCF7 breast
[58] = test system: MDA-MB-231 breast
[59] = test system: MDA-MB-435
[60] = test system: NCI-H226 lung
[61] = test system: NCI/ADR-RES ovarian
[62] = test system: OVCAR-8 ovarian
[63] = test system: PC-3 prostate
[64] = test system: SF-295 CNS
[65] = test system: SK-MEL-5 melanoma
[66] = test system: SW-620 colon
[67] = test system: T-47D breast

**Q.** With `CCCCCCCCCCCCCCCc1nc(=S)[nH][nH]1` as the molecule, how does the TGI [1] read?
**A.** > 100 µM

**Q.** What about the TGI [2] of the same molecule?
**A.** > 100 µM

**Q.** What about the TGI [3] of the same molecule?
**A.** > 100 µM

**Q.** And the TGI [4]?
**A.** > 100 µM

**Q.** And the TGI [5]?
**A.** > 100 µM

**Q.** What about the TGI [6] of the same molecule?
**A.** > 100 µM

**Q.** And the TGI [7]?
**A.** > 100 µM

**Q.** What about the TGI [8] of the same molecule?
**A.** > 100 µM

**Q.** What about the TGI [9] of the same molecule?
**A.** > 100 µM

**Q.** What about the TGI [10] of the same molecule?
**A.** > 100 µM

**Q.** What about the TGI [11] of the same molecule?
**A.** > 100 µM

**Q.** And the TGI [12]?
**A.** > 100 µM

**Q.** And the TGI [13]?
**A.** > 100 µM

**Q.** What about the TGI [14] of the same molecule?
**A.** > 100 µM

**Q.** What about the TGI [15] of the same molecule?
**A.** > 100 µM

**Q.** What about the TGI [16] of the same molecule?
**A.** > 100 µM

**Q.** And the TGI [17]?
**A.** > 100 µM

**Q.** And the TGI [18]?
**A.** > 100 µM

**Q.** And the TGI [19]?
**A.** > 100 µM

**Q.** And the TGI [20]?
**A.** > 100 µM

**Q.** What about the TGI [21] of the same molecule?
**A.** > 100 µM

**Q.** And the TGI [22]?
**A.** 68.2 µM

**Q.** What about the TGI [23] of the same molecule?
**A.** > 100 µM

**Q.** And the TGI [24]?
**A.** > 100 µM

**Q.** What about the TGI [25] of the same molecule?
**A.** > 100 µM

**Q.** And the TGI [26]?
**A.** > 100 µM

**Q.** What about the TGI [27] of the same molecule?
**A.** > 100 µM

**Q.** What about the TGI [28] of the same molecule?
**A.** > 100 µM

**Q.** What about the TGI [29] of the same molecule?
**A.** > 100 µM

**Q.** And the TGI [30]?
**A.** > 100 µM

**Q.** What about the TGI [31] of the same molecule?
**A.** > 100 µM

**Q.** And the TGI [32]?
**A.** > 100 µM

**Q.** What about the TGI [33] of the same molecule?
**A.** > 100 µM

**Q.** What about the TGI [34] of the same molecule?
**A.** > 100 µM

**Q.** What about the TGI [35] of the same molecule?
**A.** > 100 µM

**Q.** And the TGI [36]?
**A.** > 100 µM

**Q.** And the TGI [37]?
**A.** > 100 µM

**Q.** What about the TGI [38] of the same molecule?
**A.** > 100 µM

**Q.** What about the TGI [39] of the same molecule?
**A.** > 100 µM

**Q.** What about the TGI [40] of the same molecule?
**A.** > 100 µM

**Q.** What about the TGI [41] of the same molecule?
**A.** > 100 µM

**Q.** And the TGI [42]?
**A.** > 100 µM

**Q.** What about the TGI [43] of the same molecule?
**A.** > 100 µM

**Q.** `Cc1nc2ccccc2c(=O)n1/N=C(\N=Nc1cc(Cl)ccc1Cl)c1ccccc1` was tested. Which TGI [44] did it give?
**A.** > 100 µM

**Q.** What about the TGI [1] of the same molecule?
**A.** > 100 µM

**Q.** And the TGI [45]?
**A.** > 100 µM

**Q.** And the TGI [2]?
**A.** > 100 µM

**Q.** And the TGI [46]?
**A.** > 100 µM

**Q.** What about the TGI [47] of the same molecule?
**A.** > 100 µM

**Q.** And the TGI [3]?
**A.** > 100 µM

**Q.** And the TGI [48]?
**A.** > 100 µM

**Q.** And the TGI [49]?
**A.** > 100 µM

**Q.** What about the TGI [4] of the same molecule?
**A.** 82.4 µM

**Q.** What about the TGI [50] of the same molecule?
**A.** > 100 µM

**Q.** What about the TGI [51] of the same molecule?
**A.** > 100 µM

**Q.** What about the TGI [5] of the same molecule?
**A.** > 100 µM

**Q.** What about the TGI [6] of the same molecule?
**A.** > 100 µM

**Q.** What about the TGI [7] of the same molecule?
**A.** > 31.6 µM

**Q.** What about the TGI [8] of the same molecule?
**A.** > 100 µM

**Q.** And the TGI [9]?
**A.** > 100 µM

**Q.** What about the TGI [52] of the same molecule?
**A.** 44.9 µM

**Q.** What about the TGI [10] of the same molecule?
**A.** > 100 µM

**Q.** And the TGI [53]?
**A.** > 100 µM

**Q.** What about the TGI [54] of the same molecule?
**A.** > 100 µM

**Q.** What about the TGI [11] of the same molecule?
**A.** > 88.7 µM

**Q.** And the TGI [55]?
**A.** > 100 µM

**Q.** What about the TGI [12] of the same molecule?
**A.** > 100 µM

**Q.** What about the TGI [13] of the same molecule?
**A.** 25.8 µM

**Q.** What about the TGI [56] of the same molecule?
**A.** 4.47 µM

**Q.** And the TGI [14]?
**A.** > 100 µM

**Q.** And the TGI [15]?
**A.** > 100 µM

**Q.** What about the TGI [16] of the same molecule?
**A.** > 100 µM

**Q.** What about the TGI [17] of the same molecule?
**A.** > 100 µM

**Q.** And the TGI [18]?
**A.** > 100 µM

**Q.** What about the TGI [57] of the same molecule?
**A.** > 100 µM

**Q.** And the TGI [58]?
**A.** > 100 µM

**Q.** What about the TGI [59] of the same molecule?
**A.** 44.1 µM

**Q.** And the TGI [19]?
**A.** > 100 µM

**Q.** What about the TGI [60] of the same molecule?
**A.** > 100 µM

**Q.** And the TGI [20]?
**A.** > 100 µM

**Q.** And the TGI [21]?
**A.** > 100 µM

**Q.** And the TGI [22]?
**A.** 81.7 µM

**Q.** What about the TGI [61] of the same molecule?
**A.** > 100 µM

**Q.** And the TGI [23]?
**A.** > 100 µM

**Q.** And the TGI [24]?
**A.** > 100 µM

**Q.** What about the TGI [25] of the same molecule?
**A.** > 100 µM

**Q.** What about the TGI [62] of the same molecule?
**A.** > 100 µM

**Q.** And the TGI [63]?
**A.** > 100 µM

**Q.** And the TGI [26]?
**A.** > 100 µM

**Q.** And the TGI [27]?
**A.** > 100 µM

**Q.** What about the TGI [28] of the same molecule?
**A.** > 100 µM

**Q.** And the TGI [64]?
**A.** > 100 µM

**Q.** What about the TGI [29] of the same molecule?
**A.** > 100 µM

**Q.** And the TGI [30]?
**A.** > 100 µM

**Q.** What about the TGI [31] of the same molecule?
**A.** > 100 µM

**Q.** And the TGI [65]?
**A.** > 100 µM

**Q.** What about the TGI [32] of the same molecule?
**A.** > 100 µM

**Q.** And the TGI [33]?
**A.** > 83.3 µM

**Q.** And the TGI [34]?
**A.** > 31.6 µM

**Q.** And the TGI [35]?
**A.** 74.1 µM

**Q.** And the TGI [37]?
**A.** > 100 µM

**Q.** And the TGI [66]?
**A.** > 73.8 µM

**Q.** And the TGI [67]?
**A.** > 100 µM

**Q.** And the TGI [38]?
**A.** > 100 µM

**Q.** What about the TGI [39] of the same molecule?
**A.** > 75.2 µM

**Q.** What about the TGI [40] of the same molecule?
**A.** 66 µM

**Q.** And the TGI [41]?
**A.** > 100 µM

**Q.** What about the TGI [42] of the same molecule?
**A.** > 31.6 µM

**Q.** And the TGI [43]?
**A.** > 100 µM
